According to patent publication US8889667B2 (Agios Pharmaceuticals, Inc, priority 2010, dated 2014):

The compounds below were run against PKM2 (Homo sapiens, UniProt P14618) (assay: PKM2 Assay (activation, LDH-coupled, absorbance at 340 nm)). Settings: Table 5.
Assay type: biochemical
Summary of the method: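 Human PKM2 (50 ng/well) was preincubated with compound and coupling mix for 30 min at 4 °C without ADP. Reactions were then started with ADP (0.7 mM) alongside PEP 0.15 mM, NADH 180 μM and LDH, in Tris pH 7.5/KCl/MgCl2/DTT/BSA buffer. A340 was followed at 25 °C and activation reported as AC50.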

PKM2, sequence (P14618 whole entry): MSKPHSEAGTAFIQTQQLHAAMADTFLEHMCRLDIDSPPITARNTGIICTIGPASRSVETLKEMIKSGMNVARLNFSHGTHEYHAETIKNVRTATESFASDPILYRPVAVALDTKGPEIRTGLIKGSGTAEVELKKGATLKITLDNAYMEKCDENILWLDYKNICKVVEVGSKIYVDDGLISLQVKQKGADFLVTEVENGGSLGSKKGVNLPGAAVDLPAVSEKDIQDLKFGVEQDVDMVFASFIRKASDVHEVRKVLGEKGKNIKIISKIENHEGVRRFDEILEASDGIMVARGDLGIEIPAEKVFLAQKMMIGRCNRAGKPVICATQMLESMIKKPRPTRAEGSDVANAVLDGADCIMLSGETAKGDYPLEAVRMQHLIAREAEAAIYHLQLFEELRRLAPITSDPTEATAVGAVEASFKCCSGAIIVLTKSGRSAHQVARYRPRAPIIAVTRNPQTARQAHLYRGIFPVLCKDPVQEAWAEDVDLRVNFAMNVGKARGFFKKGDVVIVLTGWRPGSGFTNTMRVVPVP

Row | Structure (SMILES) | AC50 [µM]
1 | O=C(c1ccc(NS(=O)(=O)c2cccc3cccnc23)c(OC(F)(F)F)c1)N1CCN(Cc2c[nH]cn2)CC1 [Compound 381, N-(4-(4-((1H-imidazol-4-yl)methyl)piperazine-1-carbonyl)-2-(trifluoromethoxy)phenyl)quinoline-8-sulfonamide] | 0.1 to 0.5
2 | O=C(c1ccc(NS(=O)(=O)c2cccc3cccnc23)c(OC(F)(F)F)c1)N1CCN(Cc2ccn[nH]2)CC1 [Compound 382, N-(4-(4-((1H-pyrazol-5-yl)methyl)piperazine-1-carbonyl)-2-(trifluoromethoxy)phenyl)quinoline-8-sulfonamide] | 0.1 to 0.5
3 | O=C(c1ccc(NS(=O)(=O)c2cccc3cccnc23)c(OC(F)(F)F)c1)N1CCN(Cc2cn[nH]c2)CC1 [Compound 383] | 0.1 to 0.5
4 | O=C(c1ccc(NS(=O)(=O)c2cccc3cccnc23)cc1)N1CCN(Cc2cc[nH]n2)CC1 [Compound 384] | < 0.1
5 | O=C(c1ccc(NS(=O)(=O)c2cccc3cccnc23)cc1)N1CCN(Cc2cn[nH]c2)CC1 [Compound 385, N-(4-(4-((1H-pyrazol-4-yl)methyl)piperazine-1-carbonyl)phenyl)quinoline-8-sulfonamide] | < 0.1
6 | O=C(c1ccc(NS(=O)(=O)c2cccc3cccnc23)cc1)N1CCN(Cc2c[nH]cn2)CC1 [Compound 386, N-(4-(4-((1H-imidazol-4-yl)methyl)piperazine-1-carbonyl)phenyl)quinoline-8-sulfonamide] | 0.1 to 0.5
7 | C[C@@H](c1ccccc1)N1CCN(C(=O)c2ccc(NS(=O)(=O)c3cccc4cccnc34)cc2)CC1 [Compound 387, (S)—N-(4-(4-(1-phenylethyl)piperazine-1-carbonyl)phenyl)quinoline-8-sulfonamide] | < 0.1
8 | C[C@H](c1ccccc1)N1CCN(C(=O)c2ccc(NS(=O)(=O)c3cccc4cccnc34)cc2)CC1 [Compound 388, (R)—N-(4-(4-(1-phenylethyl)piperazine-1-carbonyl)phenyl)quinoline-8-sulfonamide] | < 0.1
9 | O=C(c1ccc(NS(=O)(=O)c2cccc3cccnc23)c(OC(F)(F)F)c1)N1CCN(CCCc2ccccc2)CC1 [Compound 389] | 0.5 to 1
10 | O=C(c1ccc(NS(=O)(=O)c2cccc3cccnc23)c(OC(F)(F)F)c1)N1CCN(Cc2cc(Cl)cc(Cl)c2)CC1 [Compound 391, N-(4-(4-(3,5-dichlorobenzyl)piperazine-1-carbonyl)-2-(trifluoromethoxy)phenyl)quinoline-8-sulfonamide] | 0.1 to 0.5
11 | COc1cccc(OC)c1CN1CCN(C(=O)c2ccc(NS(=O)(=O)c3cccc4cccnc34)c(OC(F)(F)F)c2)CC1 [Compound 392, N-(4-(4-(2,6-dimethoxybenzyl)piperazine-1-carbonyl)-2-(trifluoromethoxy)phenyl)quinoline-8-sulfonamide] | 0.5 to 1
12 | COc1cc(NS(=O)(=O)c2cccc3cccnc23)ccc1C(=O)N1CCN(C2(c3ccccc3)CC2)CC1 [Compound 393, N-(3-methoxy-4-(4-(1-phenylcyclopropyl)piperazine-1-carbonyl)phenyl)quinoline-8-sulfonamide] | < 0.1
13 | O=C(c1ccc(NS(=O)(=O)c2cccc3cccnc23)cc1)N1CCN(Cc2cc(F)cc(F)c2)CC1 [Compound 394, N-(4-(4-(3,5-difluorobenzyl)piperazine-1-carbonyl)phenyl)quinoline-8-sulfonamide] | < 0.1
14 | CC(c1cc(F)c(F)cc1F)N1CCN(C(=O)c2ccc(NS(=O)(=O)c3cccc4cccnc34)cc2)CC1 (stereo not drawn) [Compound 395, N-(4-(4-(1-(2,4,5-trifluorophenyl)ethyl)piperazine-1-carbonyl)phenyl)quinoline-8-sulfonamide] | < 0.1
15 | O=C(c1ccc(NS(=O)(=O)c2cccc3cccnc23)cc1)N1CCN(C2(c3ccccc3)CCCCC2)CC1 [Compound 407, N-(4-(4-(1-phenylcyclohexyl)piperazine-1-carbonyl)phenyl)quinoline-8-sulfonamide] | < 0.1

Now from value to compound:

Row | AC50 [µM] | Structure (SMILES)
16 | < 0.1 | CC(c1cc(F)cc(F)c1F)N1CCN(C(=O)c2ccc(NS(=O)(=O)c3cccc4cccnc34)cc2)CC1 (stereo not drawn) [Compound 396, N-(4-(4-(1-(2,3,5-trifluorophenyl)ethyl)piperazine-1-carbonyl)phenyl)quinoline-8-sulfonamide]
17 | < 0.1 | CC(c1c(F)cc(F)cc1F)N1CCN(C(=O)c2ccc(NS(=O)(=O)c3cccc4cccnc34)cc2)CC1 (stereo not drawn) [Compound 397, N-(4-(4-(1-(2,4,6-trifluorophenyl)ethyl)piperazine-1-carbonyl)phenyl)quinoline-8-sulfonamide]
18 | 1 to 20 | CC(c1cc(F)c(F)c(F)c1)N1CCN(C(=O)c2ccc(NS(=O)(=O)c3cccc4cccnc34)cc2)CC1 (stereo not drawn) [Compound 398, N-(4-(4-(1-(3,4,5-trifluorophenyl)ethyl)piperazine-1-carbonyl)phenyl)quinoline-8-sulfonamide]
19 | < 0.1 | O=C(c1ccc(NS(=O)(=O)c2cccc3cccnc23)cc1)N1CCN(C2(c3ccc(F)cc3)CC2)CC1 [Compound 399, N-(4-(4-(1-(4-fluorophenyl)cyclopropyl)piperazine-1-carbonyl)phenyl)quinoline-8-sulfonamide]
20 | < 0.1 | COc1cc(C(=O)N2CCN(C3(c4ccc(F)cc4)CC3)CC2)ccc1NS(=O)(=O)c1cccc2cccnc12 [Compound 400, N-(4-(4-(1-(4-fluorophenyl)cyclopropyl)piperazine-1-carbonyl)-2-methoxyphenyl)quinoline-8-sulfonamide]
21 | < 0.1 | COc1cc(NS(=O)(=O)c2cccc3cccnc23)ccc1C(=O)N1CCN(C2(c3ccc(F)cc3)CC2)CC1 [Compound 401, N-(4-(4-(1-(4-fluorophenyl)cyclopropyl)piperazine-1-carbonyl)-3-methoxyphenyl)quinoline-8-sulfonamide]
22 | 0.1 to 0.5 | O=C(c1ccc(NS(=O)(=O)c2cccc3cccnc23)c(OC(F)(F)F)c1)N1CCN(C2(c3ccc(F)cc3)CC2)CC1 [Compound 402, N-(4-(4-(1-(4-fluorophenyl)cyclopropyl)piperazine-1-carbonyl)-2-(trifluoromethoxy)phenyl)quinoline-8-sulfonamide]
23 | < 0.1 | CC(c1ccc(F)c(F)c1F)N1CCN(C(=O)c2ccc(NS(=O)(=O)c3cccc4cccnc34)cc2)CC1 (stereo not drawn) [Compound 403, N-(4-(4-(1-(2,3,4-trifluorophenyl)ethyl)piperazine-1-carbonyl)phenyl)quinoline-8-sulfonamide]
24 | < 0.1 | CC(c1c(F)ccc(F)c1F)N1CCN(C(=O)c2ccc(NS(=O)(=O)c3cccc4cccnc34)cc2)CC1 (stereo not drawn) [Compound 404, N-(4-(4-(1-(2,3,6-trifluorophenyl)ethyl)piperazine-1-carbonyl)phenyl)quinoline-8-sulfonamide]
25 | < 0.1 | CC(C)(c1cccc(F)c1)N1CCN(C(=O)c2ccc(NS(=O)(=O)c3cccc4cccnc34)cc2)CC1 [Compound 405]
26 | < 0.1 | O=C(c1ccc(NS(=O)(=O)c2cccc3cccnc23)cc1)N1CCN(C2(c3ccccc3)CCCC2)CC1 [Compound 406, N-(4-(4-(1-phenylcyclopentyl)piperazine-1-carbonyl)phenyl)quinoline-8-sulfonamide]
27 | < 0.1 | O=C(c1ccc(NS(=O)(=O)c2cccc3cccnc23)cc1)N1CCN(C2(c3ccccc3)CCC2)CC1 [Compound 408, N-(4-(4-(1-phenylcyclobutyl)piperazine-1-carbonyl)phenyl)quinoline-8-sulfonamide]
